Type in all cases: in vivo
The subject of assay [1] is adult Tetranychus cinnabarinus (Boisduval). The assay can be described thus: Joint toxicity of I-72 + fenpropathrin, Example 39, Table 39. Particulars: A = compound I-72, B = fenpropathrin, potted-seedling spraying, 72 hours, read-out: LC50. Here is the method: Test target: adult Tetranychus cinnabarinus (Boisduval), a sensitive strain reared indoors.
(§1) Preparation of the pesticide solution: according to different test requirements, the test samples were accurately weighed respectively with an electronic analytical balance. The technical pesticides were dissolved in acetone, and then diluted with 0.1% Tween 80 water into a series of pesticide solutions with a certain concentration gradient according to the experimental design dosage.
Experimental method: the activity of the mixture against the adult Tetranychus cinnabarinus (Boisduval) was determined by adopting the potted-seedling spraying method. First, the adult Tetranychus cinnabarinus of uniform size were transferred onto the leaves of kidney bean seedlings at the stage when the first pair of true leaves was fully expanded. After the adult mites had stabilized, the base number was counted. Then, the uniform spraying was performed with the pesticide solution in the order from low to high dose according to the experimental design, with 1.5 mL for each seedling and 3 replicates for each treatment. […]
The treated test materials were placed in an observation room, and the temperature, humidity and illumination of the observation room could be adjusted as needed. […] Then, the co-toxicity coefficient of each ratio was calculated using the Sun Y-P method to evaluate the mixing effect, as in Example 1.

Assay [2] relates to Unaspis yanonensis Kuwana nymphs. The assay can be described thus: Joint toxicity of I-72 + afidopyropen, Example 76, Table 76. Particulars: Unaspis yanonensis, foliar; A = compound I-72, B = afidopyropen; citrus leaf dipping; 120 hours; read-out: LC50. Here is the method:
Test target: Unaspis yanonensis Kuwana nymphs.
as §1
Experimental method: the activity of the mixture against Unaspis yanonensis Kuwana nymphs on citrus was determined by adopting the dipping method. First, the collected citrus leaves with Unaspis yanonensis Kuwana nymphs were treated with the pesticide solution in the order from low dosage to high dosage according to the experimental design. After air-drying, the petioles were kept moist with degreased cotton, and then the leaves were placed in a Petri dish, with 3 replicates for each treatment. In addition, a blank control was set up.
The treated test materials were placed in an observation room, and the temperature, humidity and illumination of the observation room could be adjusted as needed. The number of dead and live insects was investigated 120 hours later. […] Then, the co-toxicity coefficient of each ratio was calculated using the Sun Y-P method to evaluate the mixing effect (the same as in Example 1).

Assay [3] deals with 3-instar larvae of Ostrinia furnacnlis Guenee. The assay can be described thus: Joint toxicity of I-72 + flubendiamide, Example 61, Table 61. Particulars: A = compound I-72, B = flubendiamide, corn stem dipping, 72 hours, read-out: LC50. Here is the method: Test target: 3-instar larvae of Ostrinia furnacnlis Guenee.
as §1
Experimental method: first, tender corn stems were selected and dipped in the prepared pesticide solution for 10 s in the order from low dosage to high dosage according to the experimental design. After natural air-drying in the shade, they were placed in a 9-cm-diameter Petri dish with filter paper, and uniform and healthy test insects were introduced, with 10 insects for each treatment and 3 replicates for each treatment. In addition, a blank control was set up.
The treated test materials were placed in an observation room, and the temperature, humidity and illumination of the observation room could be adjusted as needed. The number of dead and live insects was investigated 72 hours later. […] Then, the co-toxicity coefficient of each ratio was calculated using the Sun Y-P method to evaluate the mixing effect (the same as in Example 1).

Assay [4] has as its system Bemisia tabaci (Gennadius) nymphs. In words: Joint toxicity of I-72 + organophosphorus insecticides, cotton leaf-disk spraying, Example 18, Table 18. To be noted: nymphs, cotton leaf-disk spraying, 96 h, A = compound I-72, B = acephate, read-out: LC50. The procedure:
Test target: Bemisia tabaci (Gennadius) nymphs.
as §1
Experimental method: first, cotton leaves with neat and consistent Bemisia tabaci (Gennadius) nymphs were selected and made into leaf disks, with about 20 insects on each leaf disk. Then, they were evenly sprayed with the pesticide solution in the order from low dosage to high dosage according to the experimental design, with 1.5 mL for each leaf and 3 replicates for each treatment. In addition, a blank control was set up.
The treated test materials were placed in an observation room, and the temperature, humidity and illumination of the observation room could be adjusted as needed. The number of dead and live insects was investigated 96 hours later. The corrected mortality rate was calculated using the Abbott's formula, and statistical analysis was performed with the DPS data processing software to obtain the toxicity regression equation, LC50 value and 95% confidence limit of each single test pesticide and each mixture of different ratios. Then, the co-toxicity coefficient of each ratio was calculated using the Sun Y-P method to evaluate the mixing effect (the same as in Example 1).

The test system of assay [5] is Frankliniella occidentalis nymphs. In words: whole plant or invertebrate. To be noted: foliar, A = compound I-72, B = dinotefuran, kidney bean leaf dipping, 48 hours, read-out: LC50. Here is the method: Test target: Frankliniella occidentalis nymphs.
as §1
Experimental method: first, kidney bean leaves were selected and dipped in the prepared pesticide solution for 10 s in the order from low dosage to high dosage according to the experimental design. After natural air-drying in the shade, they were placed in a 9-cm-diameter Petri dish with filter paper, and uniform and healthy test insects were introduced, with 20-30 insects for each treatment and 3 replicates for each treatment. In addition, a blank control was set up.
The treated test materials were placed in an observation room, and the temperature, humidity and illumination of the observation room could be adjusted as needed. The number of dead and live insects was investigated 48 hours later. […] Then, the co-toxicity coefficient of each ratio was calculated using the Sun Y-P method to evaluate the mixing effect (the same as in Example 1).

The next assay has as its system Pyrrhalta aenescens. The assay can be described thus: Joint toxicity of I-72 + fenobucarb, insect-dipping, Example 24, Table 24. To be noted: A = compound I-72, B = fenobucarb, insect-dipping, 24 hours, read-out: LC50. The procedure:
Test target: Pyrrhalta aenescens, a strain reared indoors.
Experimental method: the insect-dipping method was adopted. Pyrrhalta aenescens of the same size were selected, put into an insect-dipping cage, and evenly […] the pesticide solution in the order from low dosage to high dosage according to the experimental design, with dipping for 10 s for each treatment. They were placed in a 9-cm-diameter Petri dish with filter paper. After natural air-drying in the shade, feed was added, with 3 replicates for each treatment. In addition, a blank control was set up.
The treated test materials were placed in an observation room. The total number of test insects and the number of dead insects were investigated 24 hours later. The temperature, humidity and illumination of the observation room could be adjusted as needed. The test conditions, the preparation of the pesticide solution and the evaluation method were the same as those in Example 1.

In US20260198495A1, “BINARY INSECTICIDE COMPOSITION AND USE THEREOF” (SHENYANG SINOCHEM AGROCHEMICALS R & D CO., LTD., priority 2022, published 2026) one finds LC50 data, which are given here for one molecule.

As a reminder, the LC50 is the concentration that kills 50% of the test population.

≈ marks a conversion by molar mass, not a printed value.

With `CN(C(=O)c1ccc2c(c1)OC(F)(F)O2)c1cccc(C(=O)Nc2c(Br)cc(C(F)(C(F)(F)F)C(F)(F)F)cc2OC(F)F)c1F` [Compound I-72], the LC50 worked out at 34.1 µg/mL in assay [1]; 75.4 µg/mL in assay [2]; 0.804 µg/mL in assay [3]; 5.05 µg/mL in assay [4]; 2.41 µg/mL (≈ 3.25 µM) in assay [5]; 1.33 µg/mL with Pyrrhalta aenescens.
